Reference: patent US20140275257A1, “N-ACETYL CYSTEINE COMPOSITIONS IN THE TREATMENT OF SYSTEMIC LUPUS ERYTHEMATOSUS” (Foundation for the State University of New York, priority 2013, published 2014)

Assays:
[1] = test system: idiopathic pulmonary fibrosis patients; settings: "high-dose" oral NAC (1.8 g/day); Demedts et al. (2005); cited from earlier work
SLE patients = experiment: British Isles Lupus Assessment Group (BILAG) score in NAC pilot study; type: in vivo, human; settings: for BILAG: all patients treated with NAC, baseline 26.2
Experimental: The BILAG index is more comprehensive than the SLEDAI, recording clinical disease activity in 8 different organ systems for a total of 101 items. Each item is measured qualitatively by clinical observation (yes/no, improving/same/worse/new) or quantitatively by measuring hematologic and renal lab values. […] Normally, a total score is not calculated. However, it can be converted into a disease activity scale by assigning points to the alphabetical score: A=9, B=3, C=1, D=0, E=0, with a maximum potential score of 72. (Lam, G. K. W. and Petri, M., “Assessment of systemic lupus erthematosus,” Clin. Exp. Rheumatol., 23 (Supp. 39): S120-S132 (2005)). The classical BILAG index was subsequently updated as the BILAG 2004 index. […] Development and initial validation of an updated version of the British Isles Lupus Assessment Group's disease activity index for patients with systemic lupus erythematosus,” Rheumatology, 44: 902-906 (2005). According to the BILAG 2004 index, all features must be attributable to SLE and refer to the last 4 weeks compared with the previous 4 weeks; in some manifestations, it may be difficult to differentiate SLE from other causes as there may not be any specific test and the decision would then lies with the physician's judgement on the balance of probabilities. The term “improvement” is defined as (a) the amount that is sufficient for consideration of reduction in therapy; and (b) that which is present ≧2 weeks of the previous 4 weeks. Scoring for features is indicated as: (0) not present; (1) Improving; (2) Same; (3) Worse; (4) New.
A complete physical examination of the cardiovascular, respiratory, gastrointestinal, musculoskeletal, neurological systems, skin, head, neck, sinuses, nasal and oral cavities were performed at each visit. SLE disease activity was assessed by using the British Isles Lupus Assessment Group (BILAG) (Isenberg, D. A. et al., “BILAG 2004. Development and initial validation of an updated version of the British Isles Lupus Assessment Group's disease activity index for patients with systemic lupus erythematosus,” Rheumatology 44(7): 902-906 (2005)) and SLE Disease Activity Index (SLEDAI) (Bombardier, C. et al., “Derivation of the SLEDAI. A disease activity index for lupus patients,” Arth. Rheum., 35: 630-640 (1992)). The concurrent use and dosage of prednisone and other medications were documented.
Lupus disease activity was measured by SLEDAI and BILAG and fatigue was evaluated by FAC at baseline (visit 1) as well as monthly during a 3-month intervention (visits 2-4) and after a 1-month washout period (visit 5).
Overall clinical effectiveness of NAC relative to placebo was analyzed with multilevel modeling as implemented in the STATA routine XTMIXED (from StataCorp, College Station, Tex.), with the three nested levels being drug group, subject within drug group and study visit within subject. All models included fixed effects for drug group, study visit and the drug group by study visit interaction along with random intercepts at each design level. […] The reduction in lupus disease activity SLEDAI scores was greater for the NAC than placebo group, as indicated by a significant visit by drug interaction (z=−2.14, p=0.033). The reduction in BILAG scores was also greater for NAC than placebo group. The overall effect was statistically significant as indicated by a significant visit by drug interaction (z=−2.62, p=0.009). Two tailed paired t-test was used to assess the effects of placebo and of each and all NAC doses on clinical indices and biomarkers recorded on visits 2-5 relative to visit 1; p<0.05 was considered significant. Patients and controls were compared with two-tailed unpaired t-test.

mTOR = experiment: CD3/CD28 stimulation-induced mTOR activity in normal PBL pretreated with NAC in vitro; type: cell-based, human; settings: pretreatment by NAC in vitro (data not shown)
Excerpt: Δψm is subject to regulation by an oxidation-reduction equilibrium of ROI, pyridine nucleotides (NADH/NAD+NADPH/NADP) and GSH. (Fernandez, D. and Perl, A. “Metabolic control of T cell activation and death in SLE,” Autoimmun. Rev., 8: 184-189 (2009)). Without being bound by theory, it is believed that NAC can modulate mitochondrial hyperpolarization (MHP), directly, via neutralizing ROI or, indirectly, via sparing NADPH and promoting de novo GSH production. […] NAC-induced MHP occurred with a marked increase in NO production, which is required for mitochondrial biogenesis. (Nagy, G. et al., “Nitric Oxide-Dependent Mitochondrial Biogenesis Generates Ca^2+ Signaling Profile of Lupus T Cells,” J. Immunol., 173: 3676-3683 (2004)). In turn, NO production depends on the availability of NADPH. Without being bound by theory, it is believed that increased NO production can result from sparing of NADPH by NAC. (Fernandez, D. and Perl, A. “Metabolic control of T cell activation and death in SLE,” Autoimmun. Rev., 8: 184-189 (2009)). Without being bound by theory, NAC acts by blocking mTOR, which is a sensor of Δψm and oxidative stress in lupus T cells. (Fernandez, D. R. et al., “Activation of mTOR controls the loss of TCRζ □ in lupus T cells through HRES-1/Rab4-regulated lysosomal degradation,” J. Immunol., 182: 2063-2073 (2009)). […]

## CC(=O)N[C@@H](CS)C(=O)O [NAC, N-acetyl-L-cysteine]
[1]
  disease severity in idiopathic pulmonary fibrosis: diminished disease severity
SLE patients; NAC dose 1 (1.2 g/day)
  effect on SLE disease activity, BILAG: did not influence
SLE patients; NAC dose 2 (2.4 g/day) and dose 3 (4.8 g/day), after 1 month (p=0.029) and 3 months (p=0.0009)
  effect on BILAG: reduced
SLE patients; NAC dosing group 3 (4.8 g/day), XTMIXED z=−2.19, p=0.029
  effect on BILAG (mixed model analysis): significant reduction
SLE patients; NAC groups, visit by drug interaction, XTMIXED z=−2.62, p=0.009
  reduction in BILAG relative to placebo (mixed model analysis): greater
SLE patients; after 3-month NAC treatment with dose 3, XTMIXED z=−2.0, p=0.046
  swollen joint count (BILAG component): reduced
SLE patients; after 3-month NAC treatment, all doses combined, XTMIXED z=−2.2, p=0.028
  swollen joint count (BILAG component): reduced
SLE patients; after 1 month (visit 2), p=0.0158
  BILAG: 22.3
SLE patients; after 2 months (visit 3), p=0.0223
  BILAG: 22.2
mTOR
  CD3/CD28 stimulation-induced mTOR activity: blocking
